In patent US20240246913A1, “2-CARBOXYL-INDOLE INHIBITORS OF METALLO-BETA-LACTAMASES” (Oxford University Innovation Limited, priority 2021, published 2024):
Read-outs that look alike come from different tables or passages of the source.

Columns and labels:
Type in all cases: biochemical
[1] = target: IMP-1 (Serratia marcescens, UniProt P52699); assay: MBL inhibition, FC-5 fluorescence assay, IMP-1
Method: (§1) Inhibitors were tested using a panel of the clinically relevant B1 MBLs (NDM-1, VIM-1, -2 and IMP-1). Activities were assayed by monitoring the release of a fluorophore following the enzymatic breakdown of the cephalosporin FC-5 (https://pubs.acs.org/doi/abs/10.1021/jm400769b). FC-5 assays were conducted in clear bottomed 384 black well microplates (Greiner); the initial rate of reaction was assessed by monitoring the fluorescence intensity (λex=380 nm and λem=460 nm) using a Pherstar FS (BMG LabTech) plate reader. Initial rates of reaction were determined and dose-response analyses conducted in GraphPad Prism. Dose-response curves were fitted using the log(inhibitor) vs normalized response—variable slope model of GraphPad Prism 12. Each concentration point for routine screening was conducted with 4 intra-plate replicates.

[2] = target: VIM-1 (Pseudomonas aeruginosa, UniProt A0A0F7KYQ8); assay: MBL inhibition, FC-5 fluorescence assay, VIM-1
Method: as §1

[3] = target: NDM-1 (Klebsiella pneumoniae, UniProt C7C422); assay: MBL inhibition, FC-5 fluorescence assay, NDM-1
Method: as §1

[4] = target: VIM-2 (Escherichia coli, UniProt Q5U7L7); assay: MBL inhibition, FC-5 fluorescence assay, VIM-2
Method: as §1

[5] = FC-5 cephalosporin substrate, fluorescence, ranges of obtained pIC50, read-out: pIC50 IMP-1 (converted)
[6] = FC-5 cephalosporin substrate, ranges of obtained pIC50, read-out: pIC50 VIM-1 (converted)
[7] = FC-5 cephalosporin substrate, fluorescence, ranges of obtained pIC50, read-out: pIC50 NDM-1 (converted)
[8] = FC-5 cephalosporin substrate, ranges of obtained pIC50, read-out: pIC50 VIM-2 (converted)
[9] = pIC50 VIM-1, FC-5 cephalosporin substrate, ranges of obtained pIC50
[10] = pIC50 VIM-2, FC-5 cephalosporin substrate, ranges of obtained pIC50

Sequence of IMP-1 (P52699 19-246, looked up, species assumed): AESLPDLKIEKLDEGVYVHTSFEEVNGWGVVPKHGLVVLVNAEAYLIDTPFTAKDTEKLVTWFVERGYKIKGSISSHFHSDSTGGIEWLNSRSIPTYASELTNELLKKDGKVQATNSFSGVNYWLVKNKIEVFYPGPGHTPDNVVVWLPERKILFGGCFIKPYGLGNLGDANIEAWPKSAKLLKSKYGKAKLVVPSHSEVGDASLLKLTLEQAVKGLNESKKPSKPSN
Sequence of NDM-1 (C7C422 29-270, looked up, species assumed): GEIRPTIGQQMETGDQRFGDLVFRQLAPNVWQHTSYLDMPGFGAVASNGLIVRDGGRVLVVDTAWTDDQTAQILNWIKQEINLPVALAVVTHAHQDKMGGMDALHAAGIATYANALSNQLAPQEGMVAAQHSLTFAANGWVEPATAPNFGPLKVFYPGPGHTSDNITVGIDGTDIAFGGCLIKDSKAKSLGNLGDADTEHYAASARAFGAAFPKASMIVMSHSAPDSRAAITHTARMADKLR

Row | IC50 [1, 5] | IC50 [2, 6] | IC50 [3, 7] | IC50 [4, 8] | Structure (SMILES) | IC50 [1] | IC50 [2, 9] | IC50 [3] | IC50 [4, 10]
1 | 1 to 10 nM | > 10 nM | > 10 nM | > 10 nM | C[C@@H](c1cccc2c(N3CCS(=O)(=O)CC3)c(C(=O)O)[nH]c12)N1C[C@]2(C[C@@H](CN)C2)OC1=O [IC-40, 7-((S)-1-((2S,4r)-2-(aminomethyl)-6-oxo-5-oxa-7-azaspiro[3.4]octan-7-yl)ethyl)-3-(1,1-dioxidothiomorpholino)-1H-indole-2-carboxylic acid] |  |  |  | 
2 | > 10 nM | > 10 nM | 0.1 to 1 nM | 1 to 10 nM | C[C@@H](c1cccc2c(-c3cn[nH]c3)c(C(=O)O)[nH]c12)N1C[C@]2(C[C@@H](CN)C2)OC1=O [IC-43, 7-((S)-1-((2S,4r)-2-(aminomethyl)-6-oxo-5-oxa-7-azaspiro[3.4]octan-7-yl)ethyl)-3-(1H-pyrazol-4-yl)-1H-indole-2-carboxylic acid] |  |  |  | 
3 | > 10 nM | 1 to 10 nM | 0.1 to 1 nM | < 0.1 nM | CC(c1cnn(CCCN)c1)c1cccc2c(-c3ccc(CS(C)(=O)=O)c(F)c3)c(C(=O)O)[nH]c12 (centres unmarked) [IC-5, 7-(1-(1-(3-Aminopropyl)-1H-pyrazol-4-yl)ethyl)-3-(3-fluoro-4-((methylsulfonyl)methyl)phenyl)-1H-indole-2-carboxylic acid] |  |  |  | 
4 | > 10 nM | > 10 nM | 0.1 to 1 nM | < 0.1 nM | CC(c1cccc2c(-c3ccc(CS(C)(=O)=O)c(Cl)c3)c(C(=O)O)[nH]c12)n1cc(CCCN)nn1 (centres unmarked) [IC-10, 7-[1-[4-(3-Aminopropyl)triazol-1-yl]ethyl]-3-[3-chloro-4-(methylsulfonylmethyl)phenyl]-1H-indole-2-carboxylic acid] |  |  |  | 
5 |  |  |  |  | CC(NC(=O)Oc1ccc(CN)cc1)c1cccc2c(-c3ccc(CS(C)(=O)=O)c(F)c3)c(C(=O)O)[nH]c12 (centres unmarked) [IC-101, 7-(1-(((4-(aminomethyl)phenoxy)carbonyl)amino)ethyl)-3-(3-fluoro-4-((methylsulfonyl)methyl)phenyl)-1H-indole-2-carboxylic acid] | > 10 nM | > 10 nM | 1 to 10 nM | 1 to 10 nM
6 | > 10 nM | > 10 nM | > 10 nM | > 10 nM | CC(OCc1cnn[nH]1)c1cccc2c(-c3ccc(CS(C)(=O)=O)c(F)c3)c(C(=O)O)[nH]c12 (centres unmarked) [IC-91, 7-(1-((1H-1,2,3-triazol-5-yl)methoxy)ethyl)-3-(3-fluoro-4-((methylsulfonyl)methyl)phenyl)-1H-indole-2-carboxylic acid] |  |  |  | 
7 | > 10 nM | > 10 nM | 1 to 10 nM | > 10 nM | CC(CC(=O)NCCc1c[nH]cn1)c1cccc2c(-c3ccc(CS(C)(=O)=O)c(F)c3)c(C(=O)O)[nH]c12 (racemic) [IC-104, 3-[3-Fluoro-4-(methanesulfonylmethyl)phenyl]-7-(1-{[2-(1H-imidazol-4-yl)ethyl]carbamoy}propan-2-yl)-1H-indole-2-carboxylic acid] |  |  |  | 
8 | > 10 nM | 1 to 10 nM | 0.1 to 1 nM | 1 to 10 nM | C[C@@H](c1cccc2c(-c3ccc4c(c3)CC(=O)N4)c(C(=O)O)[nH]c12)N1C[C@]2(C[C@@H](CN)C2)OC1=O [IC-41, 7-((S)-1-((2S,4r)-2-(aminomethyl)-6-oxo-5-oxa-7-azaspiro[3.4]octan-7-yl)ethyl)-3-(2-oxoindolin-5-yl)-1H-indole-2-carboxylic acid] |  |  |  | 
9 | 1 to 10 nM | 1 to 10 nM | 0.1 to 1 nM | 1 to 10 nM | CC(c1cnc(Cl)s1)c1cccc2c(-c3ccc(CS(C)(=O)=O)c(F)c3)c(C(=O)O)[nH]c12 (centres unmarked) [IC-7, 7-(1-(2-Chlorothiazol-5-yl)ethyl)-3-(3-fluoro-4-((methylsulfonyl)methyl)phenyl)-1H-indole-2-carboxylic acid] |  |  |  | 
10 | > 10 nM | > 10 nM | 1 to 10 nM | 1 to 10 nM | CC(c1cccc2c(-c3ccc(CS(C)(=O)=O)c(F)c3)c(C(=O)O)[nH]c12)n1cc(CCCN)[nH]c1=O (centres unmarked) [IC-64, 7-[1-[5-(3-Aminopropyl)-2-oxo-1H-imidazol-3-yl]ethyl]-3-[3-fluoro-4-(methylsulfonylmethyl)phenyl]-1H-indole-2-carboxylic acid] |  |  |  | 
11 | > 10 nM | > 10 nM | 1 to 10 nM | 1 to 10 nM | CC(c1cnn(C)c1)c1cccc2c(-c3ccc(CS(C)(=O)=O)c(F)c3)c(C(=O)O)[nH]c12 (centres unmarked) [IC-3, 3-(3-Fluoro-4-((methylsulfonyl)methyl)phenyl)-7-(1-(1-methyl-1H-pyrazol-4-yl)ethyl)-1H-indole-2-carboxylic acid] |  |  |  | 
12 | > 10 nM | 1 to 10 nM | 1 to 10 nM | > 10 nM | C[C@@H](c1cccc2c(-c3ccc(CS(C)(=O)=O)c(F)c3)c(-c3nnn[nH]3)[nH]c12)N1C[C@]2(C[C@@H](CN)C2)OC1=O [IC-107, (2S,4r)-2-(Aminomethyl)-7-((S)-1-(3-(3-fluoro-4-((methylsulfonyl)methyl)phenyl)-2-(1H-tetrazole-5-yl)-1H-indol-7-yl)ethyl)-5-oxa-7-azaspiro[3.4]octan-6-one] |  |  |  | 
13 | > 10 nM | > 10 nM | 1 to 10 nM | 1 to 10 nM | CC(OC(=O)Nc1ccc(CN)cc1)c1cccc2c(-c3ccc(CS(C)(=O)=O)c(F)c3)c(C(=O)O)[nH]c12 (centres unmarked) [IC-96, 7-(1-(((4-(Aminomethyl)phenyl)carbamoyl)oxy)ethyl)-3-(3-fluoro-4-((methylsulfonyl)methyl)phenyl)-1H-indole-2-carboxylic acid] |  |  |  | 
14 | > 10 nM | > 10 nM | 1 to 10 nM | 1 to 10 nM | CC(NC(=O)Nc1ccc(CN)cc1)c1cccc2c(-c3ccc(CS(C)(=O)=O)c(F)c3)c(C(=O)O)[nH]c12 (centres unmarked) [IC-102, 7-(1-(3-(4-(aminomethyl)phenyl)ureido)ethyl)-3-(3-fluoro-4-((methylsulfonyl)methyl)phenyl)-1H-indole-2-carboxylic acid] |  |  |  | 
15 | > 10 nM | 1 to 10 nM | 0.1 to 1 nM | 0.1 to 1 nM | CC(c1cccc2c(-c3ccc(CS(C)(=O)=O)c(F)c3)c(C(=O)O)[nH]c12)n1cc(CN2CC[C@@H](N)C2)oc1=O (stereo partly drawn) [IC-82, 7-[1-[5-[[(3R)-3-Aminopyrrolidin-1-yl]methyl]-2-oxo-oxazol-3-yl]ethyl]-3-[3-fluoro-4-(methylsulfonylmethyl)phenyl]-1H-indole-2-carboxylic acid] |  |  |  | 
16 | > 10 nM | 1 to 10 nM | 0.1 to 1 nM | 0.1 to 1 nM | C[C@@H](c1cccc2c(-c3cnc(N)nc3)c(C(=O)O)[nH]c12)N1C[C@]2(C[C@@H](CN)C2)OC1=O [IC-42, 7-((S)-1-((2S,4r)-2-(aminomethyl)-6-oxo-5-oxa-7-azaspiro[3.4]octan-7-yl)ethyl)-3-(2-aminopyrimidin-5-yl)-1H-indole-2-carboxylic acid] |  |  |  | 
17 | > 10 nM | > 10 nM | > 10 nM | > 10 nM | CC(NS(=O)(=O)c1ccccc1)c1cccc2c(-c3cc(Cl)cc(Cl)c3)c(C(=O)O)[nH]c12 (centres unmarked) [IC-1, 3-(3,5-Dichlorophenyl)-7-(1-(phenylsulfonamido)ethyl)-1H-indole-2-carboxylic acid] |  |  |  | 
18 | > 10 nM | > 10 nM | 1 to 10 nM | < 0.1 nM | CC(c1noc(C2CNC(=O)C2)n1)c1cccc2c(-c3ccc(CS(C)(=O)=O)c(F)c3)c(C(=O)O)[nH]c12 (centres unmarked) [IC-63, 3-[3-Fluoro-4-(methylsulfonylmethyl)phenyl]-7-[1-[5-(5-oxopyrrolidin-3-yl)-1,2,4-oxadiazol-3-yl]ethyl]-1H-indole-2-carboxylic acid] |  |  |  | 
19 | > 10 nM | 1 to 10 nM | 0.1 to 1 nM | 1 to 10 nM | CC(c1cccc2c(-c3ccc(CS(C)(=O)=O)c(F)c3)c(C(=O)O)[nH]c12)n1cc(CN2CC[C@H](N)C2)oc1=O (stereo partly drawn) [IC-81, 7-[1-[5-[[(3S)-3-Aminopyrrolidin-1-yl]methyl]-2-oxo-oxazol-3-yl]ethyl]-3-[3-fluoro-4-(methylsulfonylmethyl)phenyl]-1H-indole-2-carboxylic acid] |  |  |  | 
20 |  |  |  |  | CC(c1cccc2c(-c3ccc(CS(C)(=O)=O)c(F)c3)c(C(=O)O)[nH]c12)N1CCNCC1 (centres unmarked) [IC-12, 3-(3-Fluoro-4-((methylsulfonyl)methyl)phenyl)-7-(1-(piperazin-1-yl)ethyl)-1H-indole-2-carboxylic acid] | > 10 nM | > 10 nM | > 10 nM | 1 to 10 nM
21 | > 10 nM | > 10 nM | 1 to 10 nM | 1 to 10 nM | C[C@@H](c1cccc2c(-c3cc(O)nc(O)c3)c(C(=O)O)[nH]c12)N1C[C@]2(C[C@@H](CN)C2)OC1=O [IC-31, 3-(2,6-dihydroxypyridin-4-yl)-7-[(1S)-1-[(2r,4r)-2-(aminomethyl)-6-oxo-5-oxa-7-azaspiro[3.4]octan-7-yl]ethyl]-1H-indole-2-carboxylic acid] |  |  |  | 
22 |  | 1 to 10 nM |  | 1 to 10 nM | CC(c1cccc2c(-c3ccc(CS(C)(=O)=O)c(F)c3)c(C(=O)O)[nH]c12)N1CC(CCCN)OC1=O (single isomer, unassigned) [IC-83, 7-(1-(5-(3-Aminopropyl)-2-oxooxazolidin-3-yl)ethyl)-3-(3-fluoro-4-((methylsulfonyl)methyl)phenyl)-1H-indole-2-carboxylic acid] |  |  |  | 
